The values below come from patent US8232271B2 (priority 2008, dated 2012).

For data set [1], the target named is T1, HCV polymerase (NS5B570n-Con1) (Hepatitis C virus genotype 1b, UniProt Q9WMX2).
T1 construct: contains a 21 amino acid deletion at the C-terminus relative to the full-length HCV polymerase; 6-histidine (N); made in house; host or cells: E. coli BL21(DE) pLysS, plasmid pET17b
The data set can be described thus: HCV NS5B RNA polymerase activity assay. It is filed as biochemical, HCV Con1 strain. The method, then:
The enzymatic activity of HCV polymerase (NS5B570n-Con1) was measured as the incorporation of radiolabeled nucleotide monophosphates into acid insoluble RNA products. Unincorporated radiolabeled substrate was removed by filtration and scintillant was added to the washed and dried filter plate containing radiolabeled RNA product. The amount of RNA product generated by NS5B570-Con1 at the end of the reaction was directly proportional to the amount of light emitted by the scintillant.
The N-terminal 6-histidine tagged HCV polymerase, derived from HCV Con1 strain, genotype 1b (NS5B570n-Con1) contains a 21 amino acid deletion at the C-terminus relative to the full-length HCV polymerase and was purified from E. coli strain BL21(DE) pLysS. The construct, containing the coding sequence of HCV NS5B Con1 (GenBank accession number AJ242654) was inserted into the plasmid construct pET17b, downstream of a T7 promoter expression cassette and transformed into E. coli. A single colony was grown overnight as a starter culture and later used inoculate 10 L of LB media supplemented with 100 μg/mL ampicillin at 37° C. Protein expression was induced by the addition of 0.25 mM isopropyl-β-D-thiogalactopyranoside (IPTG) when optical density at […] of the culture was between 0.6 and 0.8 and cells were harvested after 16 to 18 h at 30° C. NS5B570n-Con1 was purified to homogeneity using a three-step protocol including subsequent column chromatography on Ni-NTA, SP-Sepharose HP and Superdex 75 resins.
Each 50 μl enzymatic reaction contained 20 nM RNA template derived from the complementary sequence of the Internal Ribosome Entry Site (cIRES), 20 nM NS5B570n-Con1 enzyme, 0.5 μCi of tritiated UTP (Perkin Elmer catalog no. TRK-412; specific activity: 30 to 60 Ci/mmol; stock solution concentration from 7.5×10^-5 M to 20.6×10^-6 M), 1 μM each ATP, CTP, and GTP, 40 mM Tris-HCl pH 8.0, 40 mM NaCl, 4 mM DTT (dithiothreitol), 4 mM MgCl2, and 5 μl of compound serial diluted in DMSO. Reaction mixtures were assembled in 96-well filter plates (cat #MADVN0B, Millipore Co.) and incubated for 2 h at 30° C. Reactions were stopped by addition of 10% final (v/v) trichloroacetic acid and incubated for 40 min at 4° C. Reactions were filtered, washed with 8 reaction volumes of 10% (v/v) trichloroacetic acetic acid, 4 reaction volumes of 70% (v/v) ethanol, air dried, and 25 μl of scintillant (Microscint 20, Perkin-Elmer) was added to each reaction well.
The amount of light emitted from the scintillant was converted to counts per minute (CPM) on a Topcount® plate reader (Perkin-Elmer, Energy Range: Low, Efficiency Mode: Normal, Count Time: 1 min, Background Subtract: none, Cross talk reduction: Off).
Data was analyzed in Excel® (Microsoft®) and ActivityBase® (Idbs®). The reaction in the absence of enzyme was used to determine the background signal, which was subtracted from the enzymatic reactions. Positive control reactions were performed in the absence of compound, from which the background corrected activity was set as 100% polymerase activity. All data was expressed as a percentage of the positive control. The compound concentration at which the enzyme-catalyzed rate of RNA synthesis was reduced by 50% (IC50) was calculated by fitting
[formula] equation (i) to the data. where “Y” corresponds to the relative enzyme activity (in %), “% Min” is the residual relative activity at saturating compound concentration, “% Max” is the relative maximum enzymatic activity, “X” corresponds to the compound concentration, and “S” is the Hill coefficient (or slope).

Data set [2] has as its system HCV replicon cells (2209-23). The data set can be described thus: HCV replicon assay (Renilla luciferase reporter). It is filed as cell-based, HCV genotype 1b. The following applies: Hepatitis C virus, 72 h; three days incubation.
A short description of data set [3]: in vitro. The note with it: human.
The test system of data set [4] is HCV. The following applies: monotherapy; cited from earlier work.

`COc1cc(CN2CCCS2(=O)=O)c(-c2ccc[nH]c2=O)cc1C(C)(C)C` [Compound I-21, 3-[5-tert-Butyl-2-(1,1-dioxo-1λ^6-isothiazolidin-2-ylmethyl)-4-methoxy-phenyl]-1H-pyridin-2-one]: the melting point (as a rule, the temperature of the solid-liquid transition) is 109.4 to 126.9 °C. Also, the IC50 (commonly the concentration at which inhibition is half-maximal) in data set [1] is 0.017 µM. 0.168 µM corresponded to half-maximal inhibition in data set [2] (IC50).

Turning to `COc1cc(CN(c2ccccc2)S(C)(=O)=O)c(-c2ccc[nH]c2=O)cc1C(C)(C)C` [Compound I-34], the melting point was 226 to 227 °C. In data set [1], the half-maximal inhibitory concentration (IC50) was determined as 0.013 µM. The compound further displayed an IC50 in data set [2] of 0.936 µM. Besides, in data set [3], the CC50 turned out to be 44.2 µM.

`COc1cc(CNC(=O)c2ccc(O)cc2)c(-c2ccc[nH]c2=O)cc1C(C)(C)C` [Compound I-38, N-[4-tert-Butyl-5-methoxy-2-(2-oxo-1,2-dihydro-pyridin-3-yl)-benzyl]-4-hydroxy-benzamide] showed a melting point of 205 to 210 °C. In addition, it took 0.016 µM to reach half-maximal inhibition in data set [1] (IC50). The compound further came in with an IC50 in data set [2] of 0.31 µM. For the same compound, the CC50 in data set [3] is 92.9 µM.

`COc1cc(CNC(=O)c2cccc(NS(C)(=O)=O)c2)c(-c2ccc[nH]c2=O)cc1C(C)(C)C` [Compound I-63]: the melting point lay within 259 to 260 °C. The compound further came in with an IC50 in data set [1] of 0.012 µM. Besides, half-maximal inhibition in data set [2] (IC50) required 0.034 µM. This compound also yielded a CC50 in data set [3] of 43.7 µM.

As for `COc1cc(C(=O)N(C)CC#N)c(-c2ccc[nH]c2=O)cc1C(C)(C)C` [Compound I-66], the melting point is 211 to 212 °C. The IC50 in data set [1] was 0.152 µM.

Turning to `COCCN1CCN(C(=O)c2cc(OC)c(C(C)(C)C)cc2-c2ccc[nH]c2=O)CC1` [Compound I-67], the melting point lay in the range of 179 to 181 °C. The IC50 in data set [1] came out at 3.69 µM.

Regarding `COc1cc(C(=O)N2CC(O)C2)c(-c2ccc[nH]c2=O)cc1C(C)(C)C` [Compound I-68], the melting point is 236 to 238 °C. Further, in data set [1], 0.211 µM corresponded to half-maximal inhibition (IC50).

`COc1cc(Cn2c(=O)n(C)c3ccccc32)c(-c2ccc[nH]c2=O)cc1C(C)(C)C` [Compound I-69, 1-[4-tert-Butyl-5-methoxy-2-(2-oxo-1,2-dihydro-pyridin-3-yl)-benzyl]-3-methyl-1,3-dihydro-benzoimidazol-2-one] had a melting point of 140 to 142 °C. Further, the midpoint of inhibition in data set [1], the IC50, lay at 0.034 µM.

In turn, `CCOC(=O)[C@H]1CCC(=O)N1Cc1cc(OC)c(C(C)(C)C)cc1-c1ccc[nH]c1=O` [Compound I-70, (R)-1-[4-tert-Butyl-5-methoxy-2-(2-oxo-1,2-dihydro-pyridin-3-yl)-benzyl]-5-oxo-pyrrolidine-2-carboxylic acid ethyl ester] gave a melting point of 92 to 95 °C. Inhibition in data set [1] was half-maximal at 0.07 µM (IC50).

In the case of `COc1cc(CN2C(=O)CC[C@@H]2C(=O)O)c(-c2ccc[nH]c2=O)cc1C(C)(C)C` [Compound I-71, (R)-1-[4-tert-Butyl-5-methoxy-2-(2-oxo-1,2-dihydro-pyridin-3-yl)-benzyl]-5-oxo-pyrrolidine-2-carboxylic acid], the melting point lay in the range of 199 to 200 °C. This compound also yielded an IC50 in data set [1] of 0.036 µM.

`COc1cc(CN2C(=O)CC[C@H]2CO)c(-c2ccc[nH]c2=O)cc1C(C)(C)C` [Compound I-72, 3-[5-tert-Butyl-2-((S)-2-hydroxymethyl-5-oxo-pyrrolidin-1-ylmethyl)-4-methoxy-phenyl]-1H-pyridin-2-one] came in with a melting point of 146 to 148 °C. Moreover, the IC50 in data set [1] came to 0.077 µM.

`COc1cc(C(=O)N2CCC(CO)C2)c(-c2ccc[nH]c2=O)cc1C(C)(C)C` (stereo not shown) [Compound I-73] yielded a melting point of 201 to 203 °C. Also, in data set [1], 1.61 µM corresponded to half-maximal inhibition (IC50).

`COc1cc(C(=O)N(C)Cc2ccc(F)cc2)c(-c2ccc[nH]c2=O)cc1C(C)(C)C` [Compound I-77]: the melting point lay within 218 to 220 °C. In addition, 0.611 µM corresponded to half-maximal inhibition in data set [1] (IC50).

For `COc1cc(CNC(=O)[C@H]2CC[C@H](NS(C)(=O)=O)C2)c(-c2ccc[nH]c2=O)cc1C(C)(C)C` [Compound I-81, (1S,3S)-3-Methanesulfonylamino-cyclopentanecarboxylic acid 4-tert-butyl-5-methoxy-2-(2-oxo-1,2-dihydro-pyridin-3-yl)-benzylamide], the melting point was in the range of 158 to 160 °C. The compound also registered an IC50 in data set [1] of 0.022 µM. In addition, it took 0.238 µM to reach half-maximal inhibition in data set [2] (IC50).

`COc1cc(CNC(=O)C2CCCC(NS(C)(=O)=O)C2)c(-c2ccc[nH]c2=O)cc1C(C)(C)C` (stereo not shown) [Compound I-82] returned a melting point of 162 to 164 °C. The same compound showed an IC50 in data set [1] of 0.03 µM.

The compound `COc1cc(CN2C(=O)CC[C@@H]2CO)c(-c2ccc[nH]c2=O)cc1C(C)(C)C` [Compound I-83] gave a melting point of 150 to 152 °C. Besides, the IC50 in data set [1] was 0.146 µM.

For `COc1cc(CN(C)S(C)(=O)=O)c(-c2ccc[nH]c2=O)cc1C(C)(C)C` [Compound I-86], the melting point fell in the range of 230 to 231 °C. Further, the IC50 in data set [1] came to 0.052 µM.

In the case of `COc1cc(CNS(=O)(=O)c2ccccc2Cl)c(-c2ccc[nH]c2=O)cc1C(C)(C)C` [Compound I-87], the melting point lay in the range of 231 to 232 °C. Besides, the IC50 in data set [1] came out at 0.358 µM.

The compound `COc1cc(CN2C(=O)CC(C)(C)CC2=O)c(-c2ccc[nH]c2=O)cc1C(C)(C)C` [Compound I-88] returned a melting point above 300 °C. The IC50 in data set [1] was 0.052 µM.

`COc1cc(C#N)c(-c2ccc[nH]c2=O)cc1C(C)(C)C` [Compound I-91] registered a melting point of 247 to 249 °C. This compound registered an IC50 in data set [1] of 0.374 µM.

In turn, `COc1cc(CN2Cc3ccc(NS(C)(=O)=O)cc3C2=O)c(-c2ccc[nH]c2=O)cc1C(C)(C)C` [Compound I-92] gave a melting point of 173 to 175 °C. Also, half-maximal inhibition in data set [1] (IC50) was put at 0.008 µM.

For `NC(=O)c1ncn([C@@H]2O[C@H](CO)[C@@H](O)[C@H]2O)n1` [ribavirin, 1-((2R,3R,4S,5R)-3,4-Dihydroxy-5-hydroxymethyl-tetrahydro-furan-2-yl)-1H-[1,2,4]triazole-3-carboxylic acid amide], in data set [4], the “effect on serum levels of HCV-RNA” value is reported as “does not lower serum levels of HCV-RNA” and the “patients with serum amino transferase levels reduced to normal” value is reported as 40%.
